Data from paper PMC4492107 (Science signaling, 2015).

Target: T1, tcTERT (Tribolium castaneum TERT) (Tribolium castaneum, UniProt Q0QHL8)
T1 sequence (Q0QHL8 1-596): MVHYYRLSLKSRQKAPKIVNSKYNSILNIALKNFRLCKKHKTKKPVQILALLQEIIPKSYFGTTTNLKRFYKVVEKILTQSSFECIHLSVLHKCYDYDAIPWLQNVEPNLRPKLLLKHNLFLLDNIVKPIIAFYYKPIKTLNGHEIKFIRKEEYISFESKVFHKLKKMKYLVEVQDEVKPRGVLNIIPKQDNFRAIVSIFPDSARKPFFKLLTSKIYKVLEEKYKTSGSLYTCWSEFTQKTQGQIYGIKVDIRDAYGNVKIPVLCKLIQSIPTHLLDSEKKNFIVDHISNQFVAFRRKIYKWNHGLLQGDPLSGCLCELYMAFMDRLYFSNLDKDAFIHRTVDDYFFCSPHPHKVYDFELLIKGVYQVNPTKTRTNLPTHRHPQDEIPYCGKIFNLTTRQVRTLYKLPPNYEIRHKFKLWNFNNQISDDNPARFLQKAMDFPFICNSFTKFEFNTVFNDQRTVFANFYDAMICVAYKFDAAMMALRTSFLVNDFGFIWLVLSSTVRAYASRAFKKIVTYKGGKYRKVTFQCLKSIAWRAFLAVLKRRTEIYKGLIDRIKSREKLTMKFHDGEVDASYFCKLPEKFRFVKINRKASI
Test: SPR with POPC:POPE:S1P
Format: binding

Kd: ~4.8 µM
SMILES: CCCCCCCCCCCCC/C=C/[C@@H](O)[C@@H](N)COP(=O)(O)O [S1P, sphingosine 1-phosphate]
